The assay is described as follows: antimicrobial effectiveness test (USP 27), disinfectant/preservative effect. It counts as cell-based. The conditions noted are these: additive alone. The source says: Within the context of the present invention, preferably poly(hexamethylene)biguanide having a molecular weight of 2900 to 15,000 (PHMB) is used as the biguanide compound. An especially preferred disinfection solution contains PHMB in a concentration of 0.01% to 0.5% by weight, where concentrations of 0.02% to 0.06% by weight are especially advantageous. A neutral buffer containing phosphate, and preferably also containing the following substances is used as the medium: sodium citrate dihydrate, sodium acetate trihydrate, sodium chloride, sodium monohydrogen phosphate, potassium dihydrogen phosphate. Such a solution effectively disinfects and preserves the aforementioned medical devices and is in compliance with the requirements of the “antimicrobial effectiveness tests” described in USP 27 (United States Pharmacopoeia).
An adsorber column of the type IMMUNOSORBA (Fresenius Adsorber Technology GmbH) is used to remove antibodies from blood plasma and binds the antibodies via protein A of Staphylococcus aureus. This adsorber column is filled with a solution according to Example 1.

For the compound `N[C@@H](Cc1c[nH]c2ccccc12)C(=O)O` [Tryptophan, tryptophan], the disinfectant effect entry is “does not have any disinfectant effect”.

The values above are taken from patent US8663668B2, “Preservative for medical devices” (Fresenius Medical Care Deutschland GmbH, priority 2004, dated 2014).
